Measurements: PMC12388523, “Flavonoids and Sesquiterpene Lactones from Lychnophora ericoides (Arnica-Do-Cerrado) and Their In Vitro Effects on Multiple Myeloma and Acute Myeloid Leukemia” (Metabolites, 2025)

What was measured:
MOLM-13 cells [1] = assay: Metabolic activity, resazurin staining, MOLM-13; type: cell-based; conditions: for IC50: Homo sapiens, MOLM-13, 72 h, resazurin, 95% confidence interval in brackets, read-out: IC50 inhibition of metabolic activity; for Selectivity index (metabolic activity): IC50 HS-5 / IC50 MOLM-13; for Metabolic activity, mean percentage ± SE: 72 h, relative to control
Experimental: [The source words this procedure for another cell line and reports this cell line under the same test.] (§1) Acute myeloid leukemia cell line HL-60 and multiple myeloma cell lines AMO-1 and KMS-12-PE were obtained from the German Collection of Microorganisms and Cell Cultures (DSMZ), Braunschweig, Germany, and non-tumorigenic stromal cell line HS-5 was acquired from the American Type Culture Collection (ATCC, Manassas, VA, USA). All cell lines were cultured in RPMI 1640 medium without phenol red (Pan Biotech, Aidenbach, Germany), supplemented with 2 mM glutamine, 100 U/mL penicillin, 100 µg/mL streptomycin (Sigma-Aldrich, St. Louis, MO, USA), and 10% fetal bovine serum (FBS Maximus, Catus Biotech GmbH, Tutzing, Germany) at 37 °C in a humidified atmosphere of 5% CO2/95% air. Cells were fed twice weekly. Logarithmically growing cells were resuspended at 1 × 10^5 cells/mL, plated in triplicate in round-bottom 96-well plates (100 µL per well; Falcon, Becton Dickinson, Franklin Lakes, NJ, USA), and incubated at 37 °C in 5% CO2/95% air for 2 h. Subsequently, the compounds were adjusted in the cell culture medium to reach the final concentrations in a total volume of 150 µL and incubated for an additional 72 h. Cell proliferation was assessed by [^3H]-thymidine uptake. Each well was exposed to 2 µCi [^3H]-thymidine (Hartmann Analytic, Braunschweig, Germany) during the final 12–16 h of incubation. Cells were harvested using a semi-automated device, and [^3H]-thymidine incorporation (expressed in counts per minute, cpm) was measured with a scintillation counter (MicroBeta TriLux, PerkinElmer, Waltham, MA, USA). Metabolic activity was assessed by resazurin staining. Resazurin (Carl Roth, Karlsruhe, Germany) was dissolved in distilled water at a concentration of 0.1 mg/mL, and 15 µL of this solution was added to each well, followed by a 2 h incubation at 37 °C. Relative fluorescence units (RFUs) were measured using a Synergy H1 plate reader equipped with a 560 nm excitation/590 nm emission filter set (BioTek; Agilent, Santa Clara, CA, USA). Proliferation and metabolic activity in the absence of compounds were defined as 100% (control), and the values for compound-treated samples were expressed as percentages relative to the control. Selectivity indices were calculated by dividing the IC50 value of each compound against HS-5 cells through the IC50 values against the investigated cell lines.
(§2) The Wilcoxon Rank Sum Test was used to analyze proliferation and metabolic activity in the absence and presence of varying compound concentrations (NCSS 2007 software, version 07.1.2, Kaysville, UT, USA). A p-value < 0.05 was considered statistically significant. IC50 values were calculated using GraphPad Prism 10.1.2. This software reports 95% confidence intervals instead of standard errors. […] Nonetheless, the figures clearly illustrate the IC50 values due to the narrow concentration range tested.
(§3) Proliferation inhibition often leads to cell death. Therefore, the cytotoxic activity of the compounds was further evaluated using a modified 3-(4,5-dimethylthiazol-2-yl)-2,5-diphenyltetrazolium bromide (MTT) assay, the resazurin (Alamar Blue) assay. Metabolically active cells reduce the non-fluorescent dye resazurin to the fluorescent dye resorufin via mitochondrial reductase activity, which correlates with cell viability. In the first step the metabolic activity of the four isolated flavonoids was investigated, showing a dose-dependent reduction, but to a much lower extent than in the proliferation assays (Table A2). In fact, only 7,3′,4′-trimethoxymyricetin (2) inhibited the metabolic activity of all four cell lines by more than 50% at a concentration of 100 µM.

HL-60 cells [2] = assay: Proliferation, [3H]-thymidine uptake, HL-60; type: cell-based; conditions: for IC50: Homo sapiens, HL-60, 72 h, 95% confidence interval in brackets, read-out: IC50 inhibition of proliferation; for mean percentage of proliferation ± SE: 72 h, relative to control
Experimental: as §1, §2

KMS-12-PE cells [3] = assay: Proliferation, [3H]-thymidine uptake, KMS-12-PE; type: cell-based; conditions: for IC50: KMS-12-PE, 95% confidence interval in brackets, read-out: IC50 inhibition of proliferation; for IC50 / mean percentage of proliferation ± SE: 72 h; for Selectivity index (proliferation): IC50 HS-5 / IC50 KMS-12-PE; for mean percentage of proliferation ± SE: KMS-12 PE, relative to control
Experimental: as §1, §2

KMS-12-PE cells [4] = assay: Metabolic activity, resazurin staining, KMS-12-PE; type: cell-based; conditions: for IC50: Homo sapiens, KMS-12-PE, resazurin, 95% confidence interval in brackets, read-out: IC50 inhibition of metabolic activity; for IC50 / Metabolic activity, mean percentage ± SE: 72 h; for Selectivity index (metabolic activity): IC50 HS-5 / IC50 KMS-12-PE; for Metabolic activity, mean percentage ± SE: KMS-12 PE, relative to control
Experimental: as §1, §2, §3

MOLM-13 cells [5] = assay: Proliferation, [3H]-thymidine uptake, MOLM-13; type: cell-based; conditions: for IC50: Homo sapiens, MOLM-13, 72 h, 95% confidence interval in brackets, read-out: IC50 inhibition of proliferation; for mean percentage of proliferation ± SE: 72 h, relative to control
Experimental: [The source words this procedure for another cell line and reports this cell line under the same test.] as §1, §2

[6] = tested on: human colon cancer cell line HT-29; parameters: method as in PMID 22685350; conditions: cited from earlier work
HS-5 cells [7] = assay: Proliferation, [3H]-thymidine uptake, non-malignant HS-5; type: cell-based; conditions: HS5; HS-5 (non-malignant), 72 h, 95% confidence interval in brackets; read-out: IC50 inhibition of proliferation
Experimental: as §1, with “Subsequently, the compounds were adjusted in the cell culture medium to reach the final concentrations in a total volume of 150 µL and incubated for an additional 72 h.” left out, “Each well was exposed to 2 µCi [^3H]-thymidine (Hartmann Analytic, Braunschweig, Germany) during the final 12–16 h of incubation.” left out, “Resazurin (Carl Roth, Karlsruhe, Germany) was dissolved in distilled water at a concentration of 0.1 mg/mL, and 15 µL of this solution was added to each well, followed by a 2 h incubation at 37 °C.” left out
(§4) The Wilcoxon Rank Sum Test was used to analyze proliferation and metabolic activity in the absence and presence of varying compound concentrations (NCSS 2007 software, version 07.1.2, Kaysville, UT, USA). […] IC50 values were calculated using GraphPad Prism 10.1.2. […]

HL-60 cells [8] = assay: Metabolic activity, resazurin staining, HL-60; type: cell-based; conditions: for IC50: Homo sapiens, HL-60, 72 h, resazurin, 95% confidence interval in brackets, read-out: IC50 inhibition of metabolic activity; for Selectivity index (metabolic activity): IC50 HS-5 / IC50 HL-60; for Metabolic activity, mean percentage ± SE: 72 h, relative to control
Experimental: as §1, §2, §3

AMO-1 cells [9] = assay: Metabolic activity, resazurin staining, AMO-1; type: cell-based; conditions: for IC50: Homo sapiens, AMO1, AMO-1, 72 h, resazurin, 95% confidence interval in brackets, read-out: IC50 inhibition of metabolic activity; for Selectivity index (metabolic activity): IC50 HS-5 / IC50 AMO-1; for Metabolic activity, mean percentage ± SE: 72 h, relative to control
Experimental: as §1, §2, §3

NF-κB p65 = tested on: NF-κB p65; parameters: method as in PMID 22685350; conditions: read-out: concentration inhibiting NF-κB p65; cited from earlier work
HS-5 cells [10] = assay: Metabolic activity, resazurin staining, non-malignant HS-5; type: cell-based; conditions: HS5, HS-5 (non-malignant), 72 h, 95% confidence interval in brackets, read-out: IC50 inhibition of metabolic activity
Experimental: as §1, with “Subsequently, the compounds were adjusted in the cell culture medium to reach the final concentrations in a total volume of 150 µL and incubated for an additional 72 h.” left out, “Each well was exposed to 2 µCi [^3H]-thymidine (Hartmann Analytic, Braunschweig, Germany) during the final 12–16 h of incubation.” left out, “Resazurin (Carl Roth, Karlsruhe, Germany) was dissolved in distilled water at a concentration of 0.1 mg/mL, and 15 µL of this solution was added to each well, followed by a 2 h incubation at 37 °C.” left out
as §4

AMO-1 cells [11] = assay: Proliferation, [3H]-thymidine uptake, AMO-1; type: cell-based; conditions: for IC50: AMO-1, 72 h, 95% confidence interval in brackets, read-out: IC50 inhibition of proliferation; for Selectivity index (proliferation): IC50 HS-5 / IC50 AMO-1; for mean percentage of proliferation ± SE: 72 h, relative to control
Experimental: as §1, §2

KMS-12-BM = tested on: KMS-12-BM; parameters: method as in PMID 20088798; conditions: sister cell line of KMS-12-PE, read-out: IC50 inhibition of proliferation; cited from earlier work
other MM cell lines = tested on: other MM cell lines; parameters: method as in PMID 20088798; conditions: cited from earlier work
KMS-12-PE = conditions: 10 nM; cited from earlier work
HS-5 cells [12] = tested on: HS-5 cells; parameters: method as in PMID 36768497; conditions: cited from earlier work
BC cell line = tested on: BC cell line; parameters: method as in PMID 17089326; conditions: cited from earlier work
KB cell line = tested on: KB cell line; parameters: method as in PMID 17089326; conditions: cited from earlier work

SMILES	IC50 (MOLM-13 cells [1])	Selectivity index (metabolic activity) (MOLM-13 cells [1])	IC50 (HL-60 cells [2])	IC50 (KMS-12-PE cells [3]; Homo sapiens)	Selectivity index (proliferation) (KMS-12-PE cells [3])	IC50 (KMS-12-PE cells [4])	Selectivity index (metabolic activity) (KMS-12-PE cells [4])	IC50 (MOLM-13 cells [5])	IC50 (HS-5 cells [7])	IC50 (HL-60 cells [8])	Selectivity index (metabolic activity) (HL-60 cells [8])	IC50 (AMO-1 cells [9])	Selectivity index (metabolic activity) (AMO-1 cells [9])	IC50 (HS-5 cells [10])	IC50 (AMO-1 cells [11]; Homo sapiens, AMO1, 72 h)	Selectivity index (proliferation) (AMO-1 cells [11])	further results
C=C1C(=O)O[C@@H]2/C=C(/C)C3=CC(=O)[C@@](C)(C[C@H](OC(=O)/C(C)=C\C)[C@@H]12)O3 [Compound 7, lychnopholide]	1800 nM	2.8	1300 nM	2600 nM	1.7	4000 nM	1.2	1400 nM	4300 nM	2900 nM	1.7	3400 nM	1.4	4900 nM	1800 nM	2.0	IC50 [6]: 1400 nM; IC50 (NF-κB p65): 2900 nM; IC50 (AMO-1 cells [11]): 2200 nM
Nc1cccc2c1CN(C1CCC(=O)NC1=O)C2=O (stereo not drawn) [lenalidomide]																	IC50 (KMS-12-BM): 57 nM; IC50 concentrations (in words) (other MM cell lines): high µM range
COc1cc(O)c2c(=O)c(OC)c(-c3ccc(OC)c(OC)c3)oc2c1 [Compound 1, retusin]																	Metabolic activity, mean percentage ± SE (MOLM-13 cells [1]; MOLM-13, 50 µM): 88.5 ± 3.8 %; Metabolic activity, mean percentage ± SE (MOLM-13 cells [1]; MOLM-13, 100 µM): 80.5 ± 2.6 %; mean percentage of proliferation ± SE (HL-60 cells [2]; HL-60, 50 µM): 76.0 ± 3.0 %; mean percentage of proliferation ± SE (HL-60 cells [2]; HL-60, 100 µM): 65.6 ± 3.1 %; mean percentage of proliferation ± SE (KMS-12-PE cells [3]; 50 µM): 85.2 ± 1.8 %; mean percentage of proliferation ± SE (KMS-12-PE cells [3]; 100 µM): 73.0 ± 1.9 %; Metabolic activity, mean percentage ± SE (KMS-12-PE cells [4]; 50 µM): 100.9 ± 4.1%; Metabolic activity, mean percentage ± SE (KMS-12-PE cells [4]; 100 µM): 95.1 ± 4.5%; mean percentage of proliferation ± SE (MOLM-13 cells [5]; MOLM-13, 50 µM): 76.9 ± 4.7 %; mean percentage of proliferation ± SE (MOLM-13 cells [5]; MOLM-13, 100 µM): 57.8 ± 6.8 %; Metabolic activity, mean percentage ± SE (HL-60 cells [8]; HL-60, 50 µM): 93.0 ± 4.4%; Metabolic activity, mean percentage ± SE (HL-60 cells [8]; HL-60, 100 µM): 85.9 ± 1.8%; Metabolic activity, mean percentage ± SE (AMO-1 cells [9]; AMO-1, 50 µM): 91.4 ± 8.9 %; Metabolic activity, mean percentage ± SE (AMO-1 cells [9]; AMO-1, 100 µM): 81.0 ± 4.2 %; mean percentage of proliferation ± SE (AMO-1 cells [11]; AMO-1, 50 µM): 73.5 ± 7.5 %; mean percentage of proliferation ± SE (AMO-1 cells [11]; AMO-1, 100 µM): 66.9 ± 7.8 %
COc1cccc2c1C(=O)c1c(O)c3c(c(O)c1C2=O)C[C@@](O)(C(=O)CO)C[C@@H]3O[C@H]1C[C@H](N)[C@H](O)[C@H](C)O1 [doxorubicin]																	proliferation inhibited to (KMS-12-PE): 45.5%
N.N.[Cl][Pt][Cl] [Cisplatin]																	concentration needed to inhibit HS-5 cells (HS-5 cells [12]): above 1 µM
C=C1C(=O)O[C@@H]2/C=C(/CO)C3=CC(=O)[C@@](C)(C[C@H](OC(=O)/C(C)=C\C)[C@@H]12)O3 [Compound 6, centratherin]	1300 nM	3.5	1200 nM	2200 nM	1.4	2700 nM	1.6	1100 nM	2500 nM	1900 nM	2.4	2400 nM	1.9	4500 nM	2200 nM	1.1	Selectivity index (proliferation) (HL-60 cells [2]; IC50 HS-5 / IC50 HL-60): 2.1; IC50 (KMS-12-PE cells [3]): 1800 nM; IC50 (BC cell line): < 300 nM; Selectivity index (proliferation) (MOLM-13 cells [5]; IC50 HS-5 / IC50 MOLM-13): 2.2; IC50 (KB cell line): < 300 nM
